Entries after “also recorded” stand apart in the source; their conditions may differ.
Columns and labels:
[1] = Pharmacokinetics in wild-type mice with or without rifampin co-dose; format: in vivo, wild-type FVB male mice
Experimental: Age-matched Oatp1a/1b cluster-knockout, OATP1B1- or OATP1B3-knockin mice humanized on the Oatp1a/1b-knockout background, and wild-type FVB male mice were purchased from Taconic Biosciences (Hudson, N.Y., USA). Mice were between 8 and 10 weeks of age (22-34 g) at the time of study. Compound 1 was administered at a dose of 0.5 mg/kg coadministered with either vehicle or rifampin (30 mg/kg). Blood and liver samples were collected at 0.083, 0.25, 0.5, 1, 1.5, 3, 6 hours. Plasma was isolated from blood samples by centrifugation. All samples were stored at −80° C. until bioanalysis.
Compound 1 was dosed via intravenous administration to WT, humanized, and KO mice. Blood, urine, and feces were collected from the animals over 6 hours. Blood spots were collected and expelled FTA™ DMPK-B DBS Card (GE Healthcare, Life Sciences, Whatman™) within the appropriate sample circle. Pharmacokinetics of Compound 1 in WT animals was also assessed after co-administration with rifampin. Liver samples were also collected from WT animals and frozen until analysis. All samples were analyzed using LC-MS/MS and the pharmacokinetics parameters of Compound 1 were determined with Phoenix WinNonlin using non-compartmental analysis.
FIG. 2A through 2C show an in vivo PK profile and elimination of Compound 1 with and without a co-dose of the Oatp/OATP inhibitor Rifampin in different mouse models.

[2] = Pharmacokinetics and excretion in bile duct-cannulated rat, single IV dose; format: in vivo, Sprague Dawley rats; details: IV 1 mg/kg, Mean SD
Experimental: Male bile duct-cannulated beagle dogs or Sprague Dawley rats (n=3) were given a single intravenous (IV) dose of Compound 1. Plasma, urine and bile samples were collected from the dogs, and blood, urine, bile and feces samples were collected from rats up to 48 hours post-dose. Blood samples were kept on wet ice after collection until centrifuged for separation of plasma. Urine samples were collected at intervals 0 to 4, 4 to 8, 8 to 24, and 24 to 48 hours post-dose into collection tubes on wet ice. Bile samples were collected at intervals 0 to 4, 4 to 8, 8 to 24, and 24 to 48 hours post-dose into collection tubes cooled via an ice pack. Feces samples for rats were collected over 0 to 24 hour interval. All samples were transferred into properly labeled tubes and stored at −70° C. until pending shipment to the bioanalytical facility. All samples were analyzed using LC-MS/MS and the pharmacokinetic parameters of Compound 1 were determined with Phoenix WinNonlin using non-compartmental analysis.
Data are shown as Mean SD. NC indicates Not Collected.

[3] = tested on: sandwich-cultured human hepatocytes (SCHH); assay: Hepatic uptake in sandwich-cultured human hepatocytes; format: in vitro ADME
Experimental: Hepatic uptake and hepatobiliary disposition of Compound 1 was evaluated in sandwich-cultured human hepatocytes (SCHH) prepared from one donor. For assessing hepatic uptake, Compound 1 was incubated for 1, 5, and 10 minutes and the solutions were collected and frozen at −80° C. until process for bioanalysis. The wells were then washed three times with ice cold Plus (+) Buffer and were frozen at −80° C. until processed for bioanalysis. Biliary excretion of compound 1 was assessed in SCHH utilizing B-CLEAR® Technology. Briefly, cell culture medium was removed, and hepatocytes were washed twice with warm Plus (+) or Minus (−) Buffer to maintain or disrupt tight junctions, respectively. The wash solutions were removed and replaced with fresh Plus (+) Buffer or Minus (−) Buffer. The hepatocytes were conditioned for 10 minutes at 37° C. The conditioning solutions were removed and replaced with dosing solutions for Compound 1. Following a 20 minute incubation, the solutions were collected and frozen at −80° C. until process for bioanalysis. The wells were then washed three times with ice cold Plus (+) Buffer. The plates were frozen at −80° C. until processed for bioanalysis. The biliary excretion index (BEI) was calculated according to following equation: […]

OATP1B1/1B3 = assay: Simcyp PBPK modeling of OATP1Bs-mediated drug-drug interaction; set-up: species or system human; details: Simcyp input parameter
Experimental: PBPK modeling was conducted using the Simcyp™ in silico bottom-up PBPK modeling.
Simcyp™ software Version 17.0.0 was used. Simcyp™ parameters are shown below in Table 3.

Compound: O=[P@]1(S)OC[C@H]2O[C@@H]3[C@H](F)[C@@H]2O[P@](=O)(S)OC[C@H]2O[C@H]([C@H](F)[C@@H]2O1)n1cnc2c(ncnc21)NC/C=C/CNc1ncnc2c1ncn23 [Compound 1]
- fold decrease of liver/plasma Kp with rifampin ([1]; male, FVB, mouse, liver and plasma, with rifampin 30 mg/kg co-dosed, wild type mice, IV, read-out: decrease of Kp (liver/plasma) in the presence of Rifampin): 5
- decrease of biliary excretion on co-dosing rifampin ([1]; mouse models of FIG. 2A-2C (wild type and OATP1Bs humanized), rifampin co-dose): 66-79%
- increase of Cmax in the presence of rifampin ([1]; wild type mice, IV): about 2 fold
- increase in plasma exposure in the presence of rifampin ([1]; wild-type mice, 0.5 mg/kg IV, rifampin 30 mg/kg): 5.4 fold
- liver exposure (AUC) in the presence vs absence of rifampin ([1]; wild-type mice, IV, rifampin co-administered): did not change significantly; also recorded: comparable
- % Ae, feces ([2]; 0 to 24 h): 0.4 ± 0.2%
- % Ae, urine ([2]; up to 48 h, 1 mg/kg): 13.7 ± 2.8%
- concentration at which hepatic uptake is saturated ([3]; SCHH): > 1 µM
- dose proportionality of hepatic uptake ([3]; SCHH, 0.3 to 1 μM, 1 to 5 minutes of exposure): approximately dose-proportional
- hepatic uptake at 4° C. relative to 37° C. ([3]; SCHH, incubation at 4° C.): < 7.7 % of 37 °C
- mechanism of uptake in human hepatocytes ([3]; human hepatocytes): temperature-dependent active uptake
- inhibition of hepatocyte uptake by transporter inhibitors ([3]; human hepatocytes, Rifampin, tetraethylammonium): could be inhibited by Rifampin but not by tetraethylammonium
- CL R (OATP1B1/1B3): 2.000 L/h
